Tests used:
Type in all cases: cell-based
mGluR5 [1] = target: T1, mGluR5 (Homo sapiens, UniProt P41594); assay: FLIPR Ca2+ flux assay in human mGluR5 CHONFAT/mGLAST cells; settings: Fluo-4, FLIPR384, normalized to glutamate (10 μM) control maximum; EC50 values only in figure
T1 construct: expressed in transfected cells
Protocol: Agonists were added after 10 seconds of baseline determination. Data were normalized to a glutamate (10 μM) control maximum. Concentration-response curves were generated from mean data of 5 experiments. Error bars are SEM.
CHO cells expressing mGluR5 receptors (mGluR5 CHO cells) were plated in clear-bottomed, poly-D-lysine coated 384-well plates (Becton-Dickinson 35-6663 Franklin Lakes USA) in glutamate/glutamine-free medium using a Multidrop 384 cell dispenser (Thermo Labsystems, Franklin USA). The plated cells were grown overnight at 37° C. in the presence of 6% CO2. The following day, the cells were washed with 3×100 μl assay buffer (Hanks Balanced Salt Solution (Gibco 14025) containing 20 mM HEPES (Gibco 15630), 2.5 mM probenicid (Sigma P-8761), and 0.1% bovine serum albumin (Sigma) using an Embla cell washer (Skatron, Lier Norway). The cells were incubated with 1 μM Fluo-4AM (Molecular Probes) for 1 h at 37° C. and 6% CO2. The extracellular dye was removed by washing as described above. Ca^2+ flux was measured using FLIPR384, fluorometric imaging plate reader (Molecular Devices, Sunnyvale USA). For potency determination, the cells were pre-incubated with various concentrations of compound for 5 min and then stimulated for 3 min with either an EC20 or EC50 concentration of agonist (i.e. glutamate) for potentiation measurements or antagonist measurements, respectively.

mGluR5 [2] = target: T1, mGluR5; assay: β-lactamase reporter gene assay in mGluR5CHONFAT cells without mGLAST co-expression; settings: 1 μM quisqualate
Description: (§1) Aurora transcription based reporter cell lines were used to develop reporter gene assays for the mGluRs. The cell line, CHONFAT-β-lactamase, reports signaling through Gq-coupled receptors via an increase in intracellular calcium. The β-lactamase gene is under the transcriptional control of the nuclear factor of activated T-cells (N-FAT) promoter (reporting increased intracellular calcium). A second cell line Gqi5CHONFAT was utilized for Gi coupled mGluRs. This cell line contains a promiscuous G-protein that promotes coupling to a Gq signal transduction cascade. […] The production of β-lactamase resulting from the downstream signaling events of receptor activation is detected by loading cells with a fluorescent dye, CCF2-AM, a substrate cleavable by the β-lactamase enzyme. In its cleaved state, the substrate will fluoresce blue (EM460) when stimulated with UV light (395 nm). Noncleaved, the intact dye fluoresces green (EM530) (Science 1998, 279:84-88). The ratio of blue to green cells (Em460/530) is determined as a measure of signal transduction, with cells that have transduced a signal being blue and those that have not green. […]

mGluR5 [3] = target: T1, mGluR5; assay: β-lactamase reporter gene assay in mGluR5CHONFAT co-expressing mGLAST
Description: Aurora transcription based reporter cell lines were used to develop reporter gene assays for the mGluRs. The cell line, CHONFAT-β-lactamase, reports signaling through Gq-coupled receptors via an increase in intracellular calcium. The β-lactamase gene is under the transcriptional control of the nuclear factor of activated T-cells (N-FAT) promoter (reporting increased intracellular calcium). A second cell line Gqi5CHONFAT was utilized for Gi coupled mGluRs. This cell line contains a promiscuous G-protein that promotes coupling to a Gq signal transduction cascade. […] The production of β-lactamase resulting from the downstream signaling events of receptor activation is detected by loading cells with a fluorescent dye, CCF2-AM, a substrate cleavable by the β-lactamase enzyme. In its cleaved state, the substrate will fluoresce blue (EM460) when stimulated with UV light (395 nm). Noncleaved, the intact dye fluoresces green (EM530) (Science 1998, 279:84-88). The ratio of blue to green cells (Em460/530) is determined as a measure of signal transduction, with cells that have transduced a signal being blue and those that have not green.
Cells were plated at 80,000 cells per well in poly-D-lysine coated black clear bottom plates (Becton Dickinson) and grown in glutamate/glutamine free media (DMEM, -glutamine, 10% dialyzed fetal calf serum, 100 units/ml penicillin/streptomycin, 0.1 mM non-essential amino acids, 1 mM sodium pyruvate, 25 mM HEPES, 0.25 mg/mL zeocin, 10 μg/ml puromycin (Clontech 8052-2) and 1 mg/mL G418 for cell lines co-expressing mGluRs and mGLAST. All media was from GIBCO unless specified. Cells were grown overnight at 5% CO2, 37° C. The next day, media was aspirated and the cells were washed twice with serum-free DMEM and replaced with 100 μL of assay media (DMEM, glutamine free), 0.1% BSA, 25 mM HEPES. […] Plates were read 45-60 minutes later on a fluorescence plate reader (excitation 405±10 nm, emission 460±20 nm for blue; 530±15 nm. Wells containing dye and no cells were used to subtract background values.

CHONFAT cells = assay: β-lactamase reporter gene assay in non-transfected CHONFAT cells; settings: 200 nM thapsigargin; maximal fluorescence
Description: as §1

T1 sequence (P41594 21-1212): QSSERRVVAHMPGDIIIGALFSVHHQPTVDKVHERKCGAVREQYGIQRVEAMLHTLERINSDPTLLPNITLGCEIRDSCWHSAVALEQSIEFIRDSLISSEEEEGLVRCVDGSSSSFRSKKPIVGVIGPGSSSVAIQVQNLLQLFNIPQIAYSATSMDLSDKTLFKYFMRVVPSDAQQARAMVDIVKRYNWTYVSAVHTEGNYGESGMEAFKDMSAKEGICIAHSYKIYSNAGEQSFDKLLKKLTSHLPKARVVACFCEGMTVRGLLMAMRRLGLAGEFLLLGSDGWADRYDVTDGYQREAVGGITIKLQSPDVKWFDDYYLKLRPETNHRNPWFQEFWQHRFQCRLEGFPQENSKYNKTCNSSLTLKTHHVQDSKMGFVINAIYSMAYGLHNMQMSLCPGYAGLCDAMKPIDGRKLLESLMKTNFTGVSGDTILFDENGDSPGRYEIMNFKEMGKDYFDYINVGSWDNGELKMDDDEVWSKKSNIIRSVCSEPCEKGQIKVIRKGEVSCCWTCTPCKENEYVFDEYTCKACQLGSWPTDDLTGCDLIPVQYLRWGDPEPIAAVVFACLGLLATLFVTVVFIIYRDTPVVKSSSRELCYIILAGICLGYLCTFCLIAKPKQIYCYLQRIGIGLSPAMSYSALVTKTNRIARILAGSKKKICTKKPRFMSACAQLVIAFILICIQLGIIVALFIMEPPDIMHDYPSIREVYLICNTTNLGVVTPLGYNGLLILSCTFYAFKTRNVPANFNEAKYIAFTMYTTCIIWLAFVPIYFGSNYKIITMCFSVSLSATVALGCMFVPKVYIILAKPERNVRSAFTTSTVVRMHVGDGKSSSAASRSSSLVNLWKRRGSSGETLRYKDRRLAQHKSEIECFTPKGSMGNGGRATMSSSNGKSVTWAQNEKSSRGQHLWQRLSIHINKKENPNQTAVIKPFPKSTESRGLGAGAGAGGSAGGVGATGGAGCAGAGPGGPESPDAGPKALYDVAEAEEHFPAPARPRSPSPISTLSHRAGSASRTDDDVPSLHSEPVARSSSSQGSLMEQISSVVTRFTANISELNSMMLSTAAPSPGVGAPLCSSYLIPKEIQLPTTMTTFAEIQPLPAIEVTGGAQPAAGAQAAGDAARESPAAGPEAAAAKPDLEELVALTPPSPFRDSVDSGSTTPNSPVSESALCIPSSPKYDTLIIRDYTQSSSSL

In the case of N[C@@H](CCC(=O)O)C(=O)O [glutamate], the “activation of Ca^2+ transients” value (mGluR5 [1]) is reported as “activate Ca^2+ transients”.
In the case of N[C@@H](Cn1oc(=O)[nH]c1=O)C(=O)O [quisqualate], the “fluorescence ratio (EM460/530)” value (mGluR5 [2]) is reported as 0.85, the “activation of Ca^2+ transients” value (mGluR5 [1]) is reported as “activate Ca^2+ transients” and the “fluorescence ratio (EM460/530)” value (mGluR5 [3]; 10 μM quisqualate, with mGLAST co-expression) is reported as 1.35. The EC50 (mGluR5 [3]; dose response in the absence of positive allosteric modulator) was 44 nM and the EC50 (mGluR5 [3]; dose response in the presence of 10 μM positive allosteric modulator) was 15 nM.
For C/C=C(/C)C(=O)O[C@H]1C(C)=C2[C@H]([C@@H]1OC(=O)CCCCCCC)[C@@](C)(OC(C)=O)C[C@H](OC(=O)CCC)[C@@]1(O)[C@H]2OC(=O)[C@@]1(C)O [thapsigargin], the “fluorescence ratio (EM460/530)” value (CHONFAT cells) was 1.0.
In the case of NC(C(=O)O)c1cc(O)cc(O)c1 (centres unmarked) [3,5-DHPG], the “activation of Ca^2+ transients” value (mGluR5 [1]) is reported as “activate Ca^2+ transients”.

— patent US20060275835A1, “Methods for identifying cell surface receptor protein modulators” (priority 2003, published 2006)
